Source: patent publication US7728105B2, “Peptides impairing PBX dependent gene regulation” (St. George's Hospital Medical School, priority 2002, dated 2010)

Experiments:
Format in all cases: cell-based, human
CD133+ cells [1] = experiment: RT-PCR of HOX-PBX target genes in CD133+ cells
Description: Total RNA was isolated from liquid nitrogen snap-frozen cells using RNeasy Mini Kit protocol (Qiagen, Crawley, UK). 50 μl reverse transcription reactions using 1 μg of RNA per reaction heated at 75° C. cDNA with 1 μg of oligo-dT for 10 mins. Samples were cooled on ice and mixed with 200 units of M-MLV reverse transcriptase (Promega, Southampton, UK) in its associated buffer, 400 μM of dNTPs (Promega), and 40 units of RNAseout (Invitrogen, Paisley, UK). Samples were then incubated at 37° C. for one hour and finally heated at 75° C. for 5 mins. PCR reactions (35 cycles, 94° C. 30 sec, 55° C. 30 sec, 72° C. 1 min) were carried out in a 20 μl reaction using JumpStart ReadyMix REDTaq DNA polymerase (Sigma-Aldrich) using an identical amount of cDNA per reaction with 1 μM of forward and reverse primers.

[2] = test system: KG1a, KG1, HL60 and U937 cells; experiment: Cell cycle analysis (propidium iodide, flow cytometry) of leukaemic cell lines (Example 1)
Description: Cells to be investigated were harvested and washed in PBS at 400 g for 10 min. Pelleted cells were then fixed in ice-cold 70% ethanol. Fixed cells were subsequently washed twice in PBS (600 g; 10 min) and incubated in 100 μl of ribonuclease (100 μg/ml; Sigma Aldrich) for 5 min (room temperature) prior to addition of 400 μl of propidium iodide (50 μg/ml; Sigma Aldrich) and 30 minutes incubation (37° C.). Cells were then analysed for cell cycle status on FACScan flow cytometer (Becton Dickinson, USA) and using WinMDI and Cylchred softwares.

[3] = test system: KG1a, HL60 and U937 leukaemic cell lines; experiment: Growth of leukaemic cell lines over 48 hours (Example 3); details: 20 μg/ml
Description: KG1a, HL60 and U937 cell lines were seeded as described in Example 1.
All cell lines were grown with HXP peptide (20 μg/ml) or CXP (20 μg/ml). Cell lines were cultured for various time points at 37° C., 5% CO2 in humidified atmosphere and enumerated at various time points.

[4] = test system: leukaemic cell lines KG1a, KG1, HL60 and U937; experiment: Leukaemic cell lines culture, trypan blue cell count (Example 1); details: 20 μg/ml
Description: KG1a, KG1, HL60 and U937 cell lines were obtained from the ATCC (catalogue Nos. CCL-246.1, CCL-246, CCL-240 and CRL-1593.2, respectively.
Cell lines were seeded at 1-5×10^5 cells/ml in liquid culture system made of RPMI-1640 medium (Life Technologies, UK) supplemented with Foetal Calf Serum (10% Sigma Aldrich) and gentamycin (50 μg/ml, Life Technologies) and at least in duplicate. When required the HXP peptide was added to the medium (20 μg/ml). Cell lines were cultured for up to 7 days at 37° C., 5% CO2 in humidified atmosphere. Cultured cells were then counted at various time points using trypan blue exclusion method described above.

CD133+ cells [5] = experiment: CD133+ cell proliferation in cytokine supplemented liquid culture over 18 days
Description: CD133+ cells (another name for AC133+ cells) were seeded in duplicate at 4×10^4 cells/ml in IMDM (Life Technologies), 10% FCS (Sigma Aldrich) and gentamycin (50 μg/ml Life Technologies) and Thrombopoietin (TPO) 10 ng/ml, Flt3-Ligand (FL) 50 ng/ml & c-KitL (K) 20 ng/ml), all obtained from R and D systems Ltd., UK. (Forraz et al., 2002). The HXP peptide (N-term: WYPWMKKHHRQIKIWFQNRRMKWKK: C-term; Eurogentec, Belgium) and control CXP peptide (N-term: WCCLADRHGRQIKIWFQNRRMKWKK: C-term; Eurogentec, Belgium) were added to culture medium at a concentration of 20 μg/ml. To withdraw peptides from culture, cells were washed twice in IMDM or RPMI and reseeded at prewash cell densities. Primary cells were cultured for 3 weeks at 37° C., 5% CO2 in humidified atmosphere and enumerated by a […] exclusion method with a heamocytometer.

malignant cell lines = experiment: Proliferation of malignant cell lines over seven days in culture; set-up: effect of increased dose on proliferation of malignant cell lines: dose or concentration left out as unconfirmed
Description: A number of cell lines representing different malignancies were grown in culture for seven days, and HXP peptide or the control peptide CXP were added to a final concentration of 20 μg/ml on day 3. The bars represent the fold increase of each cell line over the seven days; the empty, dashed bars indicate the CXP peptide treated cells, whilst the solid bars indicate the addition of HXP peptide. Error bars represent the standard error the mean, and n is the number of experiments performed. The cell lines used were: AML—KG1a; Bladder—HT; Breast—SKBR3; Cervical—HeLa; Colon—Colo41; Gastric—MKN-45; Large cell lung cancer—MES; Melanoma—DX3; Ovarian—1847; Pancreatic—Panc-Tu1; Prostate—LNCAP; Renal—HT1376; Small cell lung cancer—NCI-h510A. The change in the expression of the HOX genes expressed by each cell line was assessed by RT-PCR on RNA extracted from the cells at the end of seven days. ‘HOX gene inactivated’ means that the level of expression of each of the listed HOX genes was at least five fold lower in the HXP peptide treated cells compared to the control. *Analysis not yet complete.
A number of cell lines representing different malignancies were grown in culture for seven days, and HXP peptide or the control peptide CXP were added to a final concentration of 200 μg/ml on day 3. The bars represent the fold increase of each cell line over the seven days; the empty, dashed bars indicate the CXP peptide treated cells, whilst the solid bars indicate the addition of HXP peptide. Error bars represent the standard error the mean, and n is the number of experiments performed. The cell lines used were: Bladder—HT; Cervical—HeLa; Melenoma—DX3; Pancreatic—Panc-Tu1.
Solid tumour cell lines (Cancer Research UK) were seeded at 4×10^4 cells/ml, in a liquid culture system made of appropriate medium (see table, Sigma-Aldrich, UK) supplemented with 10% FCS (Sigma Aldrich) and penstrep (1% Sigma). All cell lines were grown with HXP peptide (as in Example 3, 20 μg/ml or 200 μg/ml) or control peptide CXP (20 μg/ml or 200 μg/ml).
KG1a, KG1, HL60 and U937 cell lines (EACC, UK) were seeded at 5×10^4 cells/ml, in a liquid culture system made of RPMI-1640 medium (Life Technologies, UK) supplemented with 10% FCS (Sigma Aldrich) and gentamicin (50 μg/ml Life Technologies) in triplicates. All cell lines were grown with HXP peptide peptide (20 μg/ml) or control peptide (20 μg/ml).
Cell lines were cultured for various time points at 37° C., 5% CO2 in humidified atmosphere and enumerated at various time points.

[6] = 20 μg/ml added on day 3, seven days culture

With “WYPWMKKHHRQIKIWFQNRRMKWKK [HXP peptide]” the CD38 gene expression (CD133+ cells [1]; 18 days) was “up-regulated”, the “expression of HOX-PBX target genes (CDC25, CDK2, N-Ras, Ras-like GTP binding protein, MMP19, MMP1, MAPK, RAB27A, Bak2, p53, CTCF, EIF4E, CD133, CD34, TERT, HOX B4, B8 and A9)” value (CD133+ cells [1]; 18 days) was “significantly down regulated” and the “expression of HOX-PBX target genes after withdrawing HXP peptide” value (CD133+ cells [1]; withdrawal at day 7) was “up-regulation of all of these genes with the exception of MAPK”. The “effect on cell cycle of more mature leukaemic cells” value ([2]; HL60 and U937) was “slowed”, the “effect on cell cycle of immature leukaemic cells” value ([2]; KG1 and KG1a) was “may be propelled into the cell cycle” and the “cell growth inhibition on leukaemic cell lines” value [3] was “potent cell growth inhibition”. The “time at which cell growth inhibition is apparent” value [3] was “two”, the “inhibition of leukaemic cell lines (cell growth)” value [4] was “inhibits” and the “inhibition of CD133+ cell growth compared to CXP peptide-treated cells” value (CD133+ cells [5]; day 18, 20 μg/ml, average, p<0.001) was 3.7 fold. The “CD133+ cell proliferation after withdrawal of HXP peptide” value (CD133+ cells [5]; withdrawal at day 7, compared to 18 day-HXP peptide treated cells, p<0.01) was “resumption of cell proliferation”, the “fold increase in cell number after 7 days in culture, in some cases” value (malignant cell lines; 20 μg/ml) was “less than 1” and the “proliferation of cells derived from colorectal, pancreatic, small cell lung, bladder, prostate, cervical, ovarian and gastric cancers” value (malignant cell lines; [6]) was “sufficient to block the proliferation”. The “proliferation of cells derived from renal, breast and non-small cell lung cancer” value (malignant cell lines; [6]) was “no significant affect” and the “effect of increased dose on proliferation of malignant cell lines” value (malignant cell lines; ten fold increase in dose) was “complete ablation of some malignancies”.
